Assays:
[1] = tested on: PAI-1 gene expression in BEAS-2B cells; assay: TNF-α and TGF-β induced PAI-1 gene expression in BEAS-2B cells (RT-qPCR); assay type: cell-based; conditions: for TNFa stimulated PAI-1 expression: 30 min pretreatment 1-10 μM, n=1, similar potency and maxima
Protocol: The primary assay for the activity of the novel CK1δ/ε inhibitors is the modulation of gene expression in the airway epithelial cell line, the BEAS-2B cells. The assay is conducted under several conditions. Generally, TGF-β or TNF-α is used to elicit fibrogenic or inflammatory genes, respectively. The agents are added at a concentration of 10 μM, or at the indicated concentrations for a period of 30 min prior to the addition of TGF-β/TNF-α which are incubated for a further 20 hours before the addition, in some experiments of the glucocorticoid, dexamethasone (Dex, 30 nM) for the final 4 hours of the experiment, prior to harvest of cellular RNA to measure by RT-qPCR the levels of mRNA of marker genes for inflammation and fibrogenesis. The inhaled corticosteroid (ICS), budesonide is also used in some experiments. Furthermore, the supernatants are harvested at the end of the incubation periods in selected experiments to measure the levels of CSF-2 or IL-8 by ELISA as described in (Tran et al. (2005) British Journal of Pharmacology, 145, 123-131). Prior to experimentation, BEAS-2B and A549 cells were incubated in serum-free DMEM containing 0.25% bovine serum albumin (BSA) and insulin-transferrin-selenium—containing supplement (Monomed A; CSL, Parkville, Melbourne, Australia). Where indicated, cells were treated with one of the series of synthesised compounds (0.3-10 μM) prior to exposure to 100 pM TGF-β1 (R&D Systems, Minneapolis, Minn.) or 300 pM bFGF (Promega, Madison, Wis.). Total RNA was extracted from cultured cells using illustra RNAspin Mini RNA Isolation Kit (GE Healthcare). RNA extracts were reverse-transcribed into cDNA using High-Capacity RNA-to-cDNA Kit (Applied Biosystems). Real-time PCR was then performed using a QuantStudio 6 Flex Real-Time PCR System using iTaq Universal SYBR green supermix and the following thermal protocol: 50° C. (2 min), 95° C. (10 min), then 40 cycles of 95° C. (15 sec), 60° C. (1 min). The threshold cycle (CT) values determined for target genes were normalized against those obtained for 18S ribosomal RNA (18S rRNA), which was included as internal control. The generation of specific PCR products was confirmed by dissociation curve analysis. In the same experiment as described in FIG. 1, the expression of the fibrogen plasminogen activator inhibitor-1 was measured (see FIG. 2). The levels of this gene are increased by both TGF-β and by Dex and they synergise when added together. The CK1 inhibitors concentration-dependently reduce the effects of each of the stimuli and further reduce baseline expression. Their potency in this effect is similar, regardless of the condition being considered. In a separate experiment BEAS-2B cells were exposed to TNF-α with(out) 30 min pretreatment with either SS9-010 or PF670462 (1-10 μM). RNA was then extracted and analyzed by RT-qPCR. Each agent inhibited TNFa stimulated PAI-1 expression with similar potency and maxima (see FIG. 3). Data are presented as mean±SD for n=1 (three technical replicates).

[2] = tested on: SCNN1A gene expression in BEAS-2B cells; assay: TGF-β-induced suppression of dexamethasone-induced SCNN1A gene expression in BEAS-2B cells; assay type: cell-based; conditions: for SCNN1A mRNA level, Dex / SCNN1A mRNA level, TGF-β / SCNN1A mRNA level, TGF-β/Dex / SCNN1A mRNA level, vehicle (no stimulus): BEAS-2B
Protocol: The primary assay for the activity of the novel CK1δ/ε inhibitors is the modulation of gene expression in the airway epithelial cell line, the BEAS-2B cells. The assay is conducted under several conditions. Generally, TGF-β or TNF-α is used to elicit fibrogenic or inflammatory genes, respectively. The agents are added at a concentration of 10 μM, or at the indicated concentrations for a period of 30 min prior to the addition of TGF-β/TNF-α which are incubated for a further 20 hours before the addition, in some experiments of the glucocorticoid, dexamethasone (Dex, 30 nM) for the final 4 hours of the experiment, prior to harvest of cellular RNA to measure by RT-qPCR the levels of mRNA of marker genes for inflammation and fibrogenesis. The inhaled corticosteroid (ICS), budesonide is also used in some experiments. Furthermore, the supernatants are harvested at the end of the incubation periods in selected experiments to measure the levels of CSF-2 or IL-8 by ELISA as described in (Tran et al. (2005) British Journal of Pharmacology, 145, 123-131). Prior to experimentation, BEAS-2B and A549 cells were incubated in serum-free DMEM containing 0.25% bovine serum albumin (BSA) and insulin-transferrin-selenium—containing supplement (Monomed A; CSL, Parkville, Melbourne, Australia). Where indicated, cells were treated with one of the series of synthesised compounds (0.3-10 μM) prior to exposure to 100 pM TGF-β1 (R&D Systems, Minneapolis, Minn.) or 300 pM bFGF (Promega, Madison, Wis.). Total RNA was extracted from cultured cells using illustra RNAspin Mini RNA Isolation Kit (GE Healthcare). RNA extracts were reverse-transcribed into cDNA using High-Capacity RNA-to-cDNA Kit (Applied Biosystems). Real-time PCR was then performed using a QuantStudio 6 Flex Real-Time PCR System using iTaq Universal SYBR green supermix and the following thermal protocol: 50° C. (2 min), 95° C. (10 min), then 40 cycles of 95° C. (15 sec), 60° C. (1 min). The threshold cycle (CT) values determined for target genes were normalized against those obtained for 18S ribosomal RNA (18S rRNA), which was included as internal control. The generation of specific PCR products was confirmed by dissociation curve analysis. In FIG. 1, the effects of SS9-010 are contrasted with those of PF670462 in an assay in BEAS-B cells measuring the induction of the glucocorticoid-regulated gene, SCNN1A encoding the protein epithelial sodium channel alpha subunit. Serum-starved BEAS-2B cells were treated with CK1δ/ε inhibitor PF670462 (1, 3, 10 μM) or SS9-010 (1, 3, 10 μM) 30 min prior to TGF-β1 (40 pM) for 24 hours, then stimulated with dexamethasone (30 nM) for 4 hours. RNA was then extracted and analyzed by RT-qPCR. Data are presented as mean±SEM for n=4 independent experiments. The potency of PF670462 and SS9-010 were similar.

SMILES | TNFa stimulated PAI-1 expression [1] | PAI-1 mRNA level, TGF-β ([1]; agent 3 μM) [fold control] | PAI-1 mRNA level, TNF-α (n = 2) ([1]; agent 3 μM) [fold control] | PAI-1 mRNA level, TGF-β ([1]; agent 10 μM) [fold control] | PAI-1 mRNA level, TNF-α (n = 2) ([1]; agent 10 μM) [fold control] | PAI-1 mRNA level, vehicle (no stimulus) ([1]; agent 10 μM) [fold control] | SCNN1A mRNA level, Dex ([2]; agent 3 μM) [fold control] | SCNN1A mRNA level, TGF-β ([2]; agent 3 μM) [fold control] | SCNN1A mRNA level, TGF-β/Dex ([2]; agent 3 μM) [fold control] | SCNN1A mRNA level, vehicle (no stimulus) ([2]; agent 3 μM) [fold control] | SCNN1A mRNA level, Dex ([2]; agent 10 μM) [fold control] | SCNN1A mRNA level, TGF-β ([2]; agent 10 μM) [fold control] | SCNN1A mRNA level, TGF-β/Dex ([2]; agent 10 μM) [fold control] | SCNN1A mRNA level, vehicle (no stimulus) ([2]; agent 10 μM) [fold control] | potency compared with PF670462, induction of glucocorticoid-regulated gene SCNN1A ([2]; BEAS-2B, 1, 3, 10 μM, TGF-β1 40 pM 24 h, dexamethasone 30 nM 4 h)
Cl.Nc1nccc(-c2c(-c3ccc(F)cc3)ncn2C2CCCCC2)n1 [PF670462, 4-(1-Cyclohexyl-4-(4-fluorophenyl)-1H-imidazol-5-yl)pyrimidin-2-amine hydrochloride, reference compound] | inhibited | 1.30 ± 0.18 | 0.74 | 1.64 ± 0.27 | 0.47 | 0.26 ± 0.04 | 3.36 ± 0.25 | 0.91 ± 0.08 | 2.56 ± 0.08 | 1.11 ± 0.10 |  |  |  |  | 
CCCCCCCCN1CCC(n2cnc(-c3ccc(F)cc3)c2-c2ccnc(N)n2)CC1 [SS8-058, 4-(4-(4-Fluorophenyl)-1-[1-octylpiperidin-4-yl]-1H-imidazol-5-yl)pyrimidin-2-amine] |  |  |  | 9.14 ± 1.23 | 0.91 | 0.37 ± 0.04 |  |  |  |  | 6.57 | 0.91 | 3.77 | 2.62 | 
CNc1nccc(-c2c(-c3ccc(F)cc3)ncn2C2CCCCC2)n1 [SS9-010, 4-(1-Cyclohexyl-4-(4-fluorophenyl)-1H-imidazol-5-yl)-N-methylpyrimidin-2-amine] | inhibited |  |  | 0.64 ± 0.05 | 0.43 | 0.18 ± 0.00 | 3.77 ± 0.33 | 0.67 ± 0.03 | 2.77 ± 0.31 | 1.14 ± 0.05 |  |  |  |  | similar

— patent publication US20200079757A1, “COMPOUNDS FOR THE TREATMENT OF RESPIRATORY DISEASES” (THE UNIVERSITY OF MELBOURNE, priority 2017, published 2020)
